Laboratory results from US20240315993A1, “ANTIPARASITIC COMPOUNDS” (Intervet Inc., priority 2021, published 2024).

Assays:
[1] = tested on: Fly larvae I (Lucilia cuprina); experiment: Fly larvae contact/feeding assay; conditions: 48 h, read-out: Inhibition of fly larvae development
Procedure: Fly larvae I (Lucilia cuprina) were grown in medium spiked with declining concentrations of a test compound (dissolved in a DMSO-emulsifier-deionized water mixture). Inhibition of fly larvae development (%) was assessed after approximately 48 hours of continuous exposure. The vitality of used parasites was confirmed in negative control groups (i.e., an untreated control and a solvent control).

[2] = In vitro test of rain fastness; format: physicochemical; conditions: 5% solution in Miglyol 840 on rabbit hide, 4 hours, then 30 minutes in water
Procedure: In addition to good absorbance, the composition according to the invention has a high resistance to water. After applying a 5% solution of Compound 453 in Miglyol 840 to rabbit hide and allowing to sit for 4 hours, the sample was soaked in water for 30 minutes.

SMILES	inhibition at 100 ppm [1] [%]	presence of Compound 453 in the water [2]	weight loss after soaking in water [2] [%]
O=C(Nc1ccc(F)cc1F)c1cc(NC(=O)[C@H]2[C@H](c3ccc(F)c(Cl)c3)C2(Cl)Cl)ccc1Cl [Compound 197]	80	–	–
O=C(Nc1ncc(F)cc1F)c1cc(NC(=O)[C@H]2[C@H](c3cc(Cl)cc(Cl)c3)C2(Cl)Cl)ccc1Cl [Compound 453]	–	below the detection limit	4
